Experimental data: ChEMBL document CHEMBL1201862, “PubChem BioAssay data set” (2004)
Active and inactive are the calls of the source.

Assays:
[1] = decrease of insulin promoter-GFP reporter – imaging, high-content screening, mouse beta cells (AID 1628); type: functional; conditions: MIN6
[2] = MIN6 cell viability loss – mouse insulinoma, cytotoxicity control, dose response (AID 2122); type: functional;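 also: confirmatory high-throughput counterscreen run to flag cytotoxic compounds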
[3] = NIH-3T3 fibroblast cytotoxicity, dose response, cytotoxicity control, cell-based, fluorescence, Alamar Blue, secondary assay (AID 2327); type: functional;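 also: NIH-3T3 mouse fibroblasts cultured with fluconazole at 8 µg/mL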
[4] = system: Streptococcus sp. 'group A'; test: Streptococcus pyogenes SK(-)GAS viability under kanamycin – luminescence, BacTiterGlo, confirmation, counter-screen for streptokinase expression inhibitor project, dose response (AID 1900); type: functional, organism-based
[5] = fluconazole-exposed Candida albicans growth modulators – fluorescence, retest, confirmation (AID 2467); type: functional, cell-based
[6] = biological target: T1, Estrogen receptor (Homo sapiens, UniProt P03372);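 also: potency for inhibiting coactivator peptide recruitment to the receptor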
T1 sequence (P03372 whole entry): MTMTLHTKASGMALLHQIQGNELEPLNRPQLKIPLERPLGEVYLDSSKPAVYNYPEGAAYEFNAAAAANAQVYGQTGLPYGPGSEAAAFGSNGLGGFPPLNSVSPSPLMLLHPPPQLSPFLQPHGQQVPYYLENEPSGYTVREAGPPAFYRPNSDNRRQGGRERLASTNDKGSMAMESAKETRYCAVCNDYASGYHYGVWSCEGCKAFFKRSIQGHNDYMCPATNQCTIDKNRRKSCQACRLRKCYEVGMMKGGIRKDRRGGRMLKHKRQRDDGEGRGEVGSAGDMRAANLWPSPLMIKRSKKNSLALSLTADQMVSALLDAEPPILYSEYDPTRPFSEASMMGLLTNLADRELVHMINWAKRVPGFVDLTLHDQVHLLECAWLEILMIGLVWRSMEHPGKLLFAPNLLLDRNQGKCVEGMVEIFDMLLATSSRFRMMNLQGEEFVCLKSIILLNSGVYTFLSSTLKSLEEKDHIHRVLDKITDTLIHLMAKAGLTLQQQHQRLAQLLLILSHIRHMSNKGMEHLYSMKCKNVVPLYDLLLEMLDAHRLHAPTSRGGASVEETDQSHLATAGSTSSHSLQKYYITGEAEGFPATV

[7] = system: Streptococcus; test: GAS UMAA2166 growth inhibition – luminescence, BacTiterGlo, counter-screen for streptokinase expression inhibitor project, dose response (AID 1915); type: functional, organism-based;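 also: potency for reduction of bacterial viability or growth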
[8] = THP-1 cell cytotoxicity, dose response, cytotoxicity control for non-replicating M. tuberculosis project (AID 489025); type: functional
[9] = HepG2 cell cytotoxicity, dose response, cytotoxicity control for non-replicating M. tuberculosis project (AID 489018); type: functional; conditions: Mycobacterium tuberculosis
[10] = Vero E6 cell cytotoxicity, dose response, cytotoxicity control for non-replicating M. tuberculosis project, secondary assay (AID 492998); type: functional, VeroE6; conditions: Vero C1008
[11] = cells; type: functional
[12] = biological target: Dual specificity protein phosphatase 3 (Homo sapiens, UniProt P51452); test: SAR VHR1 Fluorescent Assay for In Vitro dose response studies Set 3. [Related pubchem assays (depositor defined):AID1654, AID1661, AID1878]; type: functional
Sequence of Dual specificity protein phosphatase 3 (P51452 whole entry): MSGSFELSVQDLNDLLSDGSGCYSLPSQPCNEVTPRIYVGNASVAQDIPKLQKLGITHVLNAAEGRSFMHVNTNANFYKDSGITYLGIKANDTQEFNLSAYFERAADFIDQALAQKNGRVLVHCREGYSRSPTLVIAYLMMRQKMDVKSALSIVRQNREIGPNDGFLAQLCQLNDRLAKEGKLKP

[13] = system: BJ; test: BJ-TERT fibroblast viability loss – cell-based, RAS-independent, luminescence, dose response (AID 1933); type: functional; conditions: Homo sapiens
[14] = system: BJ; test: cells; type: functional, cell-based; conditions: Homo sapiens
[15] = system: BJ; test: BJ-TERT-LT-ST fibroblast viability loss – cell-based, RAS-independent, luminescence, dose response (AID 1935); type: functional; conditions: Homo sapiens;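 also: BJ fibroblasts immortalized with TERT plus LT and ST oncogenes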
[16] = DRD fibroblast viability loss – cell-based, non-viral oncogenic, luminescence, dose response (AID 1934); type: functional; conditions: Homo sapiens
[17] = Luminescence Cell-Based Dose Retest to Confirm Inhibitors of Cancer Stem Cells. [Related pubchem assays (depositor defined):AID2717, AID2721]; type: functional; conditions: Homo sapiens
[18] = system: Escherichia coli; test: microbe, parasite or virus in culture
[19] = biological target: T2, Cytochrome P450 1A2 (Homo sapiens, UniProt P05177);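 also: PubChem cytochrome P450 panel assay, CYP1A2 panel member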
T2 sequence (P05177 whole entry): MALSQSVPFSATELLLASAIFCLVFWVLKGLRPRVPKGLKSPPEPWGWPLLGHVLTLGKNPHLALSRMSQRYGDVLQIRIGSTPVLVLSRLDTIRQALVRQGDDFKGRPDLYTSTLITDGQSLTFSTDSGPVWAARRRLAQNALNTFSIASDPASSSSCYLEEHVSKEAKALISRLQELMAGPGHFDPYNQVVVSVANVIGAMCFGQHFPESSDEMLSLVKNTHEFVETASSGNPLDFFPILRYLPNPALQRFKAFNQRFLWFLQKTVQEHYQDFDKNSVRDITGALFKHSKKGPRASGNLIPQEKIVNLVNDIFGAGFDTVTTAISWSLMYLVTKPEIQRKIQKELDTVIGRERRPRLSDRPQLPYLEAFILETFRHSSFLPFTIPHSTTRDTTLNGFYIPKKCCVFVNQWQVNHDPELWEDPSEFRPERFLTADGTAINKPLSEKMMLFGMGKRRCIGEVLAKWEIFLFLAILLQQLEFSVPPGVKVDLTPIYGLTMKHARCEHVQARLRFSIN

[20] = biological target: T3, Streptokinase A (Streptococcus pyogenes serotype M1, UniProt P10520); test: viability-normalized secreted streptokinase activity reduction – plasminogen activation absorbance, OD405, dose response (AID 1914); type: functional, Streptococcus pyogenes M1 GAS;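 also: secreted streptokinase activity via plasminogen activation per viability signal from cell pellet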
T3 sequence (P10520 whole entry): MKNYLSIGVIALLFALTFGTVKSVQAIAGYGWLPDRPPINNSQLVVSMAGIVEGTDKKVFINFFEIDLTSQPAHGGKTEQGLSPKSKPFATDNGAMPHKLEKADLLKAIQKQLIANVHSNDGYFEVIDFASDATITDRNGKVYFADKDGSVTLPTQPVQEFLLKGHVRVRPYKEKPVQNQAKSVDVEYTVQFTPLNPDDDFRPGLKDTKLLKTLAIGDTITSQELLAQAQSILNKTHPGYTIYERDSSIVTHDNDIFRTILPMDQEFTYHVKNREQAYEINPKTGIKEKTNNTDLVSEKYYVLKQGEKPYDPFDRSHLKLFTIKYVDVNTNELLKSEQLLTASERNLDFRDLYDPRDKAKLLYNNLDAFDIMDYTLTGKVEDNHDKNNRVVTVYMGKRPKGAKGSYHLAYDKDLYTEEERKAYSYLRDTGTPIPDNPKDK

[21] = system: Jurkat; test: blockers of NF-kB activation in T cells – Jurkat, luciferase reporter, luminescence, B- and T-cell, dose response (AID 489004); type: functional, cell-based; conditions: Homo sapiens;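 also: NF-kB luciferase reporter Jurkat cells stimulated with PMA plus ionomycin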
[22] = HEK-293T viability loss, compound-treated – cell-based, uHTS hits, cytotoxicity control for B/T-cell NF-kB inhibitor project, dose response (AID 489019); type: functional;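 also: IC50 reflects cytotoxicity as loss of cell viability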
[23] = biological target: Heat shock protein HSP 90-alpha (Homo sapiens, UniProt P07900); type: functional, organism-based
[24] = system: BJ; test: growth inhibition of engineered Ras-driven BJ cells – cell-based, alamar blue fluorescence, cherrypicked samples, dose response (AID 2631); type: functional; conditions: Homo sapiens;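 also: confirmatory dose-response assay in RAS-dependent BJ fibroblasts engineered with TERT, LT and ST, with cytotoxicity read by fluorescence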
[25] = system: INS1; test: INS-1E survival protection against cytokine death – cell-based, luminescence, retest, dose response (AID 449756); type: functional; conditions: Rattus norvegicus;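 also: cell death triggered by IL-1 beta plus TNF-alpha plus IFN-gamma mixture; protective hits raise ATP signal compared with cytokine alone wells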
[26] = biological target: Galanin receptor type 3 (Homo sapiens, UniProt O60755); test: Fluorescence-based cell-based primary high throughput dose response assay to identify antagonists of the Galanin Receptor 3 (GalR3).; type: functional
Sequence of Galanin receptor type 3 (O60755 whole entry): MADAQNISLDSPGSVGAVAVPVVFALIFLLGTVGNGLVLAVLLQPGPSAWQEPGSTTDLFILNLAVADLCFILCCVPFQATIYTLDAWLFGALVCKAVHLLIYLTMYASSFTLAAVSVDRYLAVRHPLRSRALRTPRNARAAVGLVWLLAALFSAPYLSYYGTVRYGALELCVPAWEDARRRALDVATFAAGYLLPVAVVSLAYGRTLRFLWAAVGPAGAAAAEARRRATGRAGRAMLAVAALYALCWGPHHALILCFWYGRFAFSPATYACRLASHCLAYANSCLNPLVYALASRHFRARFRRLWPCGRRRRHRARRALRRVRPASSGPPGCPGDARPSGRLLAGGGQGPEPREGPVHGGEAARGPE

[27] = cells; type: functional, cell-based; conditions: HEK-CNG
[28] = biological target: T4, DNA repair protein RAD52 homolog (Homo sapiens, UniProt P43351); type: functional, biochemical
T4 sequence (P43351 whole entry): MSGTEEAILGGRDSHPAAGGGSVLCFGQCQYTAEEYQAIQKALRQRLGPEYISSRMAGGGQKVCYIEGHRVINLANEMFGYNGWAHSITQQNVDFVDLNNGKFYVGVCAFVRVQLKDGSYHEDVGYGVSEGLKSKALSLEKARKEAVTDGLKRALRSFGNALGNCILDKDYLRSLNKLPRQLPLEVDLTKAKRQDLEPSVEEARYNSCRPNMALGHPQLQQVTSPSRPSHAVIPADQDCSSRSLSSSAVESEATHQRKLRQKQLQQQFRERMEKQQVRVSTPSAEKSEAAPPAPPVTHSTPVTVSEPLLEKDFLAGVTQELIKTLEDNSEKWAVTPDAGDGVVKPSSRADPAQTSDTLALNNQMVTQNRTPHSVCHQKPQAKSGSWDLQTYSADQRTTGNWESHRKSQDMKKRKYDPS

[29] = biological target: Paired box protein Pax-8 (Homo sapiens, UniProt Q06710); test: PAX8 transcriptional activity inhibition in RMG-I – RMG-I cells, luciferase, cherry-pick, dose response (AID 687027); type: functional, cell-based;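 also: luciferase reporter driven by Pax8 target thyroperoxidase promoter measured by SteadyGlo luminescence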
Sequence of Paired box protein Pax-8 (Q06710 whole entry): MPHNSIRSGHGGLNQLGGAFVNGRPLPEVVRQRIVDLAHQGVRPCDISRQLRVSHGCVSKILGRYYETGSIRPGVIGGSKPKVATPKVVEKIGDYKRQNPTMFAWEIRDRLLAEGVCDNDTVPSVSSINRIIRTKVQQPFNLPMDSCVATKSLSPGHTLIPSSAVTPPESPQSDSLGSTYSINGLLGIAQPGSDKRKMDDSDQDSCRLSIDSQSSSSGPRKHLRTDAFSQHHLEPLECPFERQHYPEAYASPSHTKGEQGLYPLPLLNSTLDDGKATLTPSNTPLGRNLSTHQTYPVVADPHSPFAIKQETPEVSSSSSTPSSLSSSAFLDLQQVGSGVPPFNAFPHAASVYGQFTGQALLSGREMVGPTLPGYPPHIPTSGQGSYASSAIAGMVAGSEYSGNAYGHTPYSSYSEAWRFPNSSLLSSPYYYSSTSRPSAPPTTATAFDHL

[30] = viability loss of HMLE_sh_eGFP cells – cell-based, luminescence, counter-screen for HMLE_sh_ECad selective toxicity project, dose response (AID 463074); type: functional, Homo sapiens;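 also: HMLE human mammary epithelial cells expressing control shRNA against eGFP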
[31] = biological target: T5, High affinity choline transporter 1 (Homo sapiens, UniProt Q9GZV3); test: human choline transporter blockers, potency – cell-based, 5-point CRC, membrane potential dye, dose response (AID 504840); type: functional
T5 sequence (Q9GZV3 whole entry): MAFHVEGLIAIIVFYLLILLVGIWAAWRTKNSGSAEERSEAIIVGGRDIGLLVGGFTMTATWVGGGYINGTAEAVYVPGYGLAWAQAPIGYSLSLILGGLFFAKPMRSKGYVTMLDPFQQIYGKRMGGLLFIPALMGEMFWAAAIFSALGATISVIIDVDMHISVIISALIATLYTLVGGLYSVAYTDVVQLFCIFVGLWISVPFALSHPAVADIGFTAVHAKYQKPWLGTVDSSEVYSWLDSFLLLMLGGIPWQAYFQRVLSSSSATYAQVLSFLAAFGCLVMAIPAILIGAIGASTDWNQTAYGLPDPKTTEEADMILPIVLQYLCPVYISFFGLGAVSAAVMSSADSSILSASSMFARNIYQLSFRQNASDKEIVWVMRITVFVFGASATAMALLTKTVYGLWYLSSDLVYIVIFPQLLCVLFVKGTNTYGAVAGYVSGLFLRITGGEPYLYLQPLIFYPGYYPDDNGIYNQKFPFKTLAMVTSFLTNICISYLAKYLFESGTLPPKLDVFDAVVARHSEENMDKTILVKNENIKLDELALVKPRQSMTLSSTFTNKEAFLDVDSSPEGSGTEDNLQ

[32] = system: Jurkat; test: SAR Analysis of small molecule inhibitors of […] specific antigen receptor-induced NF-kB activation in a Jurkat cell line using a luminescence assay - Set 3. [Related pubchem assays (depositor defined):AID435022, AID435025, AID465]; type: functional, cell-based; conditions: Homo sapiens
[33] = system: HEK293; test: SAR Analysis of small molecule inhibitors of B-cell specific antigen receptor-induced NF-kB activation in a HEK-293T cell line using a luminescence assay - Set 2. [Related pubchem assays (depositor defined):AID435022, AID435025, AID489021]; type: functional, cell-based; conditions: Homo sapiens
[34] = system: HEK293; test: HEK293T cell viability loss, resazurin readout – resazurin fluorescence, cytotoxicity control for NF-kB activator project, SAR follow-up (AID 493251); type: functional, cell-based; conditions: Homo sapiens

Nc1c2c(nc3ccc(Br)cc13)N(C1CCCCC1)CC2
IC50 [1]: 3.06 µM (active) | IC50 [2]: 4.61 µM (active)

COc1cccc2sc(Nc3nnc(-c4ccc(F)cc4)o3)nc12
EC50 [3]: > 160 µM (inconclusive) | EC50 [4]: 0.29 µM (active) | EC50 [5]: 1.72 µM (active) | IC50 [6]: 25 µM (active) | EC50 [7]: 2.25 µM (active) | CC50 [8]: 14.5 µM (active) | CC50 [9]: > 20 µM (active) | CC50 [10]: 9.26 µM (active) | IC50 [11]: 15.3 µM (active) | IC50 [12]: 7.3 µM (active)

COCCNC(=O)c1cnc2ccc(S(=O)(=O)N3CCc4ccccc43)cc2c1O
EC50 [13]: > 150 µM (not active) | EC50 [14]: 7.76 µM (active) | EC50 [15]: > 150 µM (not active) | EC50 [16]: 11.5 µM (active) | AC50 [17]: 2.32 µM (active) | AC50 [18]: 87.7 µM (active)

N[C@H](C(=O)O)c1nnn[nH]1
AC50 [19]: inconclusive

CCCCCCCCCCCCn1ccc(=N)cc1
EC50 [4]: 3.09 µM (active) | EC50 [13]: 2.72 µM (active) | EC50 [20]: 17.6 µM (active) | EC50 [14]: 2.85 µM (inconclusive) | EC50 [15]: 5.37 µM (inconclusive) | EC50 [16]: 8.01 µM (active) | EC50 [7]: 10.3 µM (active) | IC50 [21]: 0.92 µM (active) | IC50 [22]: 66.1 µM (inactive) | AC50 [23]: 10.8 µM (active) | EC50 [24]: 0.949 µM (active) | AC50 [25]: 0.293 µM (active) | IC50 [26]: 1.28 µM (active) | EC50 [27]: > 29.9 µM (inactive) | AC50 [28]: 14.8 µM (active) | AC50 [29]: 3.74 µM (active)

COc1ccc(CN(C)c2ncnc3sccc23)c(OC)c1OC
AC50 [17]: 15.8 µM (active) | AC50 [30]: 27.4 µM (active) | IC50 [31]: 13.8 µM (active)

CC(C)(C)c1ccc(-c2noc(CCC(=O)Nc3ccccc3)n2)cc1
IC50 [32]: 0.473 µM (active) | IC50 [33]: 0.23 µM (active) | IC50 [34]: > 80 µM (inactive)
